Source: paper PMC4648528, “Interplay between Structure and Charge as a Key to Allosteric Modulation of Human 20S Proteasome by the Basic Fragment of HIV-1 Tat Protein” (PLoS ONE, 2015)
Read-outs that look alike come from different tables or passages of the source. Square brackets hold non-standard residues; d marks the D form. Ends that are not written are not given here. Peptide text beside a SMILES is read from it. Oic = O=C(O)[C@@H]1C[C@@H]2CCCC[C@@H]2N1; dOic = O=C(O)[C@H]1C[C@H]2CCCC[C@H]2N1; Tic = O=C(O)[C@@H]1Cc2ccccc2CN1; dTic = O=C(O)[C@H]1Cc2ccccc2CN1

How the values were obtained:
human 20S proteasome [1] = system: T1, human 20S proteasome; test: Peptide degradation test with 20S proteasome (RP-HPLC); format: in vitro ADME
T1 construct: isolated from human erythrocytes (Enzo Life Sciences); purchased Enzo Life Sciences; host or cells: human erythrocytes
Procedure: Susceptibility of the designed modulators to degradation by the 20S proteasome was examined by reversed-phase high-performance liquid chromatography (S10 Fig). The compounds were dissolved in water or DMSO to 10 mM concentration and then diluted with 25 mM Tris buffer containing 0.25 mM EDTA (pH 8.0) to the final concentration of 1 mM. 2.5 μg of human 20S proteasome (Enzo Life Sciences) was added to the mixture, which then, after adjustment of its final volume to 100 μl, was incubated at 37°C for 3 h. The reaction was stopped by adding 5 μl of 10% aqueous trifluoroacetic acid. Next, 40 μl of the mixture, along with the control not containing the 20S, were injected onto C8 Kromasil column (4,6 x 250 mm, 100 Å, 5 μm). […]
incubation with the proteasome under standard conditions used in our tests. For comparison we also included the degradation profile of Tat1_A4-5,8-9, which was not able to inhibit the proteasome […]
(1 picture or pasted object on this page, not shown here)

human 20S proteasome [2] = molecular target: T1, human 20S proteasome; test: Microscale thermophoresis with fluorescently labeled human 20S proteasome; format: binding; conditions: for Kd: MST; for EC50: MST Hill fit, concentrations listed in nM, read-out: EC50, fitted value (Hill method)
Description: Microscale thermophoresis detects changes in the mobility of protein molecules in temperature gradients generated by IR laser radiation. The thermophoretic effect is very sensitive to induced by a ligand binding alterations in the charge, size and/or the hydration shell of a studied protein [39]. Quantification of these changes is based on either intrinsic fluorophores such as tryptophan or covalently bound dyes. Titration of the selected peptides/peptidomimetics to a constant concentration of the fluorescently labeled human 20S proteasome allowed us to determine ligand dissociation constants (Kd), and systematically compare their binding affinity.
The human 20S proteasome was labeled using monolith NT^TM Protein Labeling Kit RED-NHS (NanoTemper Technologies), according to the protocol provided by the supplier. During the measurements concentration of the labeled protein was kept constant at 3 nM. […] The binding reactions were carried out in 50 mM Tris/HCl buffer containing 0.5 mM EDTA, pH 8.0 with an addition of sodium dodecyl sulfate at the final concentration of 0.005%. Measurements were performed in standard treated capillaries on a Monolith NT.115 system (NanoTemper Technologies). Capillaries were illuminated at 25°C with 80% LED power for 5 s. […] Fluorescence intensities were measured at 6–8 s and 34–36 s, and fluorescence intensity ratios of hot/cold were used as the assay readout. Kd values were determined using the internal evaluation software.

human 20S proteasome [3] = molecular target: T1, human 20S proteasome; test: ChT-L peptidase activity of SDS-activated human 20S proteasome (SucLLVY-MCA); format: biochemical
Procedure: Influence of the designed peptides on catalytic properties of the 20S proteasome was tested using the proteasome at a final concentration of 1.5 nM, isolated from human erythrocytes (Enzo Life Sciences) and activated with 0.01% sodium dodecyl sulfate. Succinyl-Leu-Leu-Val-Tyr-4-methylcoumarin-7-amide (SucLLVY-MCA) was employed as a model fluorogenic substrate to determine the activity of ChT-L peptidase. All assays were performed in the 96-well plate format using a reaction volume of 100 uL. Tests were carried out in 50 mM Tris/HCl, pH 8.0 containing 0.5 mM ethylenediamine tetraacetic acid. Stock solutions of the substrates and the tested peptides were prepared by dissolution of the lyophilized compounds in dimethyl sulfoxide (DMSO). The content of DMSO never exceeded 3% of the final reaction volume. Compounds were tested in the concentration range of 0.05–10 μM. The substrate was added at 100 μM final concentration (1% of the volume). The release of an aminomethyl coumarin (AMC) group was followed by measuring fluorescence emission at 460 nm in 2 min. intervals for up to 60 min. at 37°C (Fluoroskan Ascent). The peptidolytic activity was calculated as nanomoles of the released AMC product per mg of CP per second. The half maximal inhibitory concentration expressed in μM concentration was calculated with SigmaPlot 12.3 where exponential equation estimates based on fitting of two or three logistic parameters were employed.

20S proteasome = conditions: cited from earlier work
Description: Intriguingly, we first identified the importance of structural dynamics of this peptide, when we compared the FTIR spectra collected in liquid and films. […] The best studied and shortest 11-residue PR11 may contain a structural turn and is hypothesized to bind at the outer edge of the proteasomal α ring. Another example is octa-arginine, inhibiting the proteasome peptidase activity in vitro with high- ...

[4] = ChT-L activity, average of repetitions, read-out: Calculated IC50, Average
[5] = ChT-L peptidase, 1.5 nM 20S from human erythrocytes activated with 0.01% SDS, 100 μM SucLLVY-MCA, 50 mM Tris/HCl pH 8.0, 0.5 mM EDTA, 37°C, mean (±SD), read-out: IC50
[6] = average of three repetitions, read-out: Kd, Average
[7] = ChT-L activity, Repetition 1, read-out: Calculated IC50

Compound | IC50 (human 20S proteasome [3]; [4]) | IC50 (human 20S proteasome [3]; [5]) | further results
N=C(N)NCCC[C@H](NC(=O)CN)C(=O)N[C@@H](CCCCN)C(=O)N[C@@H](CCCCN)C(=O)N[C@@H](CCCNC(=N)N)C(=O)N[C@@H](CCCNC(=N)N)C(=O)N[C@@H](CCC(N)=O)C(=O)N[C@@H](CCCNC(=N)N)C(=O)N[C@@H](CCCNC(=N)N)C(=O)N[C@@H](CCCNC(=N)N)C(=O)N1CCC[C@H]1C(=O)N[C@@H](CO)C(=O)O [Tat1] |  |  | Degradation by the 20S proteasome (human 20S proteasome [1]; 1 mM peptide, 2.5 μg human 20S proteasome in 100 μl, 25 mM Tris, 0.25 mM EDTA pH 8.0, 37°C, 3 h, RP-HPLC C8, UV 223 nm, against control without 20S): No significant degradation
N=C(N)NCCC[C@H](NC(=O)CN)C(=O)N[C@@H](CCCCN)C(=O)N1Cc2ccccc2C[C@@H]1C(=O)N1[C@H](C(=O)N[C@@H](CCCNC(=N)N)C(=O)N[C@@H](CCC(N)=O)C(=O)N2Cc3ccccc3C[C@H]2C(=O)N2[C@@H](C(=O)N[C@@H](CCCNC(=N)N)C(=O)N3CCC[C@H]3C(=O)N[C@@H](CO)C(=O)O)C[C@H]3CCCC[C@H]32)C[C@@H]2CCCC[C@@H]21 [Tat1_4-5TO,8-9TOD] (H-GRK[dTic][Oic]RQ[Tic][dOic]RPS-OH) | 245 nM | 240 nM | Kd (human 20S proteasome [2]; read-out: Dissociation constants Kd calculated on the basis of the thermophoresis curves, 3 nM labeled 20S, 50 mM Tris/HCl, 0.5 mM EDTA pH 8.0, 0.005% SDS, 25°C, mean (±SD)): 8380 nM
N=C(N)NCCC[C@H](NC(=O)CN)C(=O)N[C@@H](CCCCN)C(=O)N1Cc2ccccc2C[C@@H]1C(=O)N1[C@H](C(=O)N[C@@H](CCCNC(=N)N)C(=O)N[C@@H](CCC(N)=O)C(=O)N[C@@H](CCCNC(=N)N)C(=O)N[C@@H](CCCNC(=N)N)C(=O)N[C@@H](CCCNC(=N)N)C(=O)N2CCC[C@H]2C(=O)N[C@@H](CO)C(=O)O)C[C@@H]2CCCC[C@@H]21 [Tat1_4-5TO] (HELM PEPTIDE1{G.R.K.[O=C([C@H]1Cc2ccccc2CN1[*:1])[*:2]].[O=C([C@@H]1C[C@@H]2CCCC[C@@H]2N1[*:1])[*:2]].R.Q.R.R.R.P.S}$$$$V2.0) | 239 nM | 240 nM | EC50 (human 20S proteasome [2]; Repetition 1): 8730 ± 0.0212 nM; EC50 (human 20S proteasome [2]; Repetition 2): 9260 ± 0.0182 nM; EC50 (human 20S proteasome [2]; Repetition 3): 8730 ± 0.0265 nM; Kd (human 20S proteasome [2]; [6]): 8910 nM
N=C(N)NCCC[C@H](NC(=O)CN)C(=O)N[C@@H](CCCCN)C(=O)N[C@@H](CCCCN)C(=O)N[C@@H](CCCNC(=N)N)C(=O)N[C@@H](CCCNC(=N)N)C(=O)N[C@@H](CCC(N)=O)C(=O)N1Cc2ccccc2C[C@H]1C(=O)N1[C@@H](C(=O)N[C@@H](CCCNC(=N)N)C(=O)N2CCC[C@H]2C(=O)N[C@@H](CO)C(=O)O)C[C@H]2CCCC[C@H]21 [Tat1_8-9TOD] | 122 nM | 120 nM | EC50 (human 20S proteasome [2]; Repetition 1): 8320 ± 0.0423 nM; EC50 (human 20S proteasome [2]; Repetition 2): 7550 ± 0.0388 nM; EC50 (human 20S proteasome [2]; Repetition 3): 8560 ± 0.0538 nM; Kd (human 20S proteasome [2]; [6]): 8140 nM; IC50 lower than for counterpart with d-Tic,l-Oic unit (Tat1_8-9TO) (human 20S proteasome [3]; ChT-L activity): about 30%
N=C(N)NCCC[C@H](NC(=O)CN)C(=O)N[C@@H](CCCCN)C(=O)N[C@@H](CCCCN)C(=O)N[C@@H](CCCNC(=N)N)C(=O)N[C@@H](CCCNC(=N)N)C(=O)N[C@@H](CCC(N)=O)C(=O)N1Cc2ccccc2C[C@@H]1C(=O)N1[C@H](C(=O)N[C@@H](CCCNC(=N)N)C(=O)N2CCC[C@H]2C(=O)N[C@@H](CO)C(=O)O)C[C@@H]2CCCC[C@@H]21 [Tat1_8-9TO] | 170 nM | 170 nM | EC50 (human 20S proteasome [2]; Repetition 1): 8880 ± 0.0559 nM; EC50 (human 20S proteasome [2]; Repetition 2): 10800 ± 0.0559 nM; EC50 (human 20S proteasome [2]; Repetition 3): 11500 ± 0.0559 nM; Kd (human 20S proteasome [2]; [6]): 10400 nM
GAAARRQRRRPS [Tat1_A2-4] |  | 450 nM | Increase of IC50 relative to Tat1 (human 20S proteasome [3]; ChT-L activity of SDS activated 20S proteasome): about two times higher
GRAAAAQRRRPS [Tat1_A3-6] | 4240 nM | 4240 nM | 
GRAAARQRRRPS [Tat1_A3-5] | 1570 nM | 1570 nM | 
GRAARRQRRRPS [Tat1_A3-4] | 245 nM | 240 nM | 
GRKAAAQRRRPS [Tat1_A4-6] | 1720 nM | 1720 nM | EC50 (human 20S proteasome [2]; Repetition 1): 12800 ± 0.155 nM; EC50 (human 20S proteasome [2]; Repetition 2): 10600 ± 0.0436 nM; EC50 (human 20S proteasome [2]; Repetition 3): 12000 ± 0.084 nM; Kd (human 20S proteasome [2]; Repetition2, read-out: Kd): 10600 nM; Kd (human 20S proteasome [2]; [6]): 12100 nM
GRKAARQAARPS [Tat1_A4-5,8–9] |  | 4660 nM | IC50 (human 20S proteasome [3]; [7]): 4890 nM; IC50 (human 20S proteasome [3]; ChT-L activity, Repetition 2, read-out: Calculated IC50): 3470 nM; IC50 (human 20S proteasome [3]; ChT-L activity, Repetition 3, read-out: Calculated IC50): 4430 nM; Degradation by the 20S proteasome (human 20S proteasome [1]; pH 8): partially degraded by the proteasome
GRKAARQRRRPS [Tat1_A4-5] | 264 nM | 260 nM | 
GRKKAAARRRPS [Tat1_A5-7] | 315 nM | 310 nM | 
GRKKAAQRRRPS [Tat1_A5-6] | 321 nM | 320 nM | 
GRKKARAAARPS [Tat1_A5,7–9] | 1530 nM | 1530 nM | 
GRKKRAAARRPS [Tat1_A6-8] | 342 nM | 340 nM | 
GRKKRRAAAAPS [Tat1_A7-10] | 2790 nM | 2790 nM | 
GRKKRRAAARPS [Tat1_A7-9] | 281 nM | 280 nM | 
GRKKRRQAAAPS [Tat1_A8-10] | 2520 nM | 2520 nM | EC50 (human 20S proteasome [2]; Repetition 1): 13800 ± 0.227 nM; EC50 (human 20S proteasome [2]; Repetition 2): 12800 ± 0.251 nM; EC50 (human 20S proteasome [2]; Repetition 3): 13800 ± 0.218 nM; Kd (human 20S proteasome [2]; [6]): 13500 nM; IC50 (human 20S proteasome [3]; [7]): 1990 nM
octa-arginine |  |  | IC50, proteasome peptidase activity in vitro (20S proteasome): high-nanomolar
